The values that follow are results of earlier work, collected in PMC11007962, “First-in-human study of GFH018, a small molecule inhibitor of transforming growth factor-β receptor I inhibitor, in patients with advanced solid tumors” (BMC Cancer, 2024).

Data set [1] deals with advanced HPV-associated malignancies. The arrangement: method as in PMID 33323462. To be noted: patients with advanced HPV-associated malignancies; comparators are historical data; cited from earlier work.
On the set-up of data set [2]: method as in PMID 25488804, PMID 26309397. To be noted: consecutive regimens; cited from earlier work.

On to “nivolumab: historical comparator in HPV-associated malignancies”, for which, in data set [1], the ORR is recorded as 24%.

In the case of `Cc1cccc(-c2nn3c(c2-c2ccnc4ccc(C(N)=O)cc24)CCC3)n1` [galunsertib, reference compound], in data set [2], the “cardiac findings in toxicology studies” value is reported as “cardiac lesions occur”.

With “pembrolizumab: historical comparator in HPV-associated malignancies”, the ORR in data set [1] was 24%.

B1: bintrafusp alfa: bifunctional fusion protein targeting TGF-β and PD-L1 (antibody, chains of the INN, looked up, V domains shown)
VH: EVQLLESGGGLVQPGGSLRLSCAASGFTFSSYIMMWVRQAPGKGLEWVSSIYPSGGITFYADTVKGRFTISRDNSKNTLYLQMNSLRAEDTAVYYCARIKLGTVTTVDYWGQGTLVTVSS
VL: QSALTQPASVSGSPGQSITISCTGTSSDVGGYNYVSWYQQHPGKAPKLMIYDVSNRPSGVSNRFSGSKSGNTASLTISGLQAEDEADYYCSSYTSSSTRVFGTGTKVTVL
With B1, the ORR in data set [1] is listed as 35.6%.
